This assay has as its target T1, recombinant guanylate cyclase reporter cell line (Rattus norvegicus, UniProt P19686+P20595).
T1 construct: expressed in transfected cells; host or cells: recombinant reporter cell line
T1 sequence (P19686 1-690): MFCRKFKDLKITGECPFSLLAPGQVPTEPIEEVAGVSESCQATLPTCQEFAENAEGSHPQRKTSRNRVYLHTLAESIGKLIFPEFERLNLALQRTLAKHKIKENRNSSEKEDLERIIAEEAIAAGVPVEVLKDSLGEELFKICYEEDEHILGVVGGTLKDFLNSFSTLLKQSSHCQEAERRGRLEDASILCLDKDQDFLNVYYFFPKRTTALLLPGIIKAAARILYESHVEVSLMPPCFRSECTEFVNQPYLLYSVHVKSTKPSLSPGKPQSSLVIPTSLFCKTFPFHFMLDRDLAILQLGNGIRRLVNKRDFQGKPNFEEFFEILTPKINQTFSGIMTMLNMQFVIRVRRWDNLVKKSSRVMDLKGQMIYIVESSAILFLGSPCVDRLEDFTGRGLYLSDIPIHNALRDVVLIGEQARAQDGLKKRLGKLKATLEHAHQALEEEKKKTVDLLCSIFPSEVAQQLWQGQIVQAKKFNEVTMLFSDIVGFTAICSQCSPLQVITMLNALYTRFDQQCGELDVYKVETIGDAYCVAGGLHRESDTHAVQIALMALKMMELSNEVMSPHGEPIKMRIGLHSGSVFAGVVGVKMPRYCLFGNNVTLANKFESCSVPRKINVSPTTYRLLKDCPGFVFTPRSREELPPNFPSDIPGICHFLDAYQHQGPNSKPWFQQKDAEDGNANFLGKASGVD
T1 sequence (P20595 1-619): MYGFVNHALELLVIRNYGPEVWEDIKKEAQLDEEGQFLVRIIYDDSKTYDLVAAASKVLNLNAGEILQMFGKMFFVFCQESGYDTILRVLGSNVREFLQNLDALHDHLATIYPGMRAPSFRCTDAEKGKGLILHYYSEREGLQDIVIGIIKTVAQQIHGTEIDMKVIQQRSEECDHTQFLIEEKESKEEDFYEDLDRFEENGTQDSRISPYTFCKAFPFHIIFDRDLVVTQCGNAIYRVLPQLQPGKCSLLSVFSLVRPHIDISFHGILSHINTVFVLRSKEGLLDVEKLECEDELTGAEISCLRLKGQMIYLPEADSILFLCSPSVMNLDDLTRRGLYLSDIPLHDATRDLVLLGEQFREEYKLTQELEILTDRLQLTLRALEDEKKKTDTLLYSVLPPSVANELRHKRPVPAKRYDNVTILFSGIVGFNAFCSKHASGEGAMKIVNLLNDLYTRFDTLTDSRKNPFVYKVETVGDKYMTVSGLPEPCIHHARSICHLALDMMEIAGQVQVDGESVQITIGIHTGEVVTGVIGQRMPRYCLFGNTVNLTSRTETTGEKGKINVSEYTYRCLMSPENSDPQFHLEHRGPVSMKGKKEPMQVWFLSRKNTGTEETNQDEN
Description: Action on recombinant guanylate cyclase reporter cell line. The format is cell-based. The note with it: in some cases mean values from individual determinations. As for the experimental part:
B-2. Action on Recombinant Guanylate Cyclase Reporter Cell Line
The cellular action of the compounds according to the invention is determined on a recombinant guanylate cyclase reporter cell line, as described in F. Wunder et al., Anal. Biochem. 339, 104-112 (2005).
Representative MEC values (MEC=minimal effective concentration) for the compounds according to the invention are shown in the following table (in some cases as mean values obtained from individual determinations): […]
Take `Cc1nc2c(OCc3c(F)cccc3F)cccn2c1C(=O)NC(CN)COC(C)C` (racemic) [Example 63, rac-N-(1-Amino-3-isopropoxypropan-2-yl)-8-[(2,6-difluorobenzyl)oxy]-2-methylimidazo[1,2-a]-pyridine-3-carboxamide]: the “MEC (minimal effective concentration)” value is 0.30 µM. With `Cc1nc2c(OCc3c(F)cccc3F)cccn2c1C(=O)NC1CNc2ccccc2C1` (racemic) [Example 75, rac-8-[(2,6-Difluorobenzyl)oxy]-2-methyl-N-(1,2,3,4-tetrahydroquinolin-3-yl)imidazo[1,2-a]-pyridine-3-carboxamide], the “MEC (minimal effective concentration)” value came to 1.00 µM.

As for `Cc1cc(OCc2c(F)cccc2F)c2nc(C)c(C(=O)NC3CNc4ccccc4C3)n2c1` (racemic) [Example 76, rac-8-[(2,6-difluorobenzyl)oxy]-2,6-dimethyl-N-(1,2,3,4-tetrahydroquinolin-3-yl)imidazo[1,2-a]-pyridine-3-carboxamide], the “MEC (minimal effective concentration)” value is 0.30 µM. As for `Cc1cc(OCc2c(F)cccc2F)c2nc(C)c(C(=O)NC(C)C3CCN(C)CC3)n2c1` (racemic) [Example 77, rac-8-[(2,6-difluorobenzyl)oxy]-2,6-dimethyl-N-[1-(1-methylpiperidin-4-yl)ethyl]imidazo[1,2-a]-pyridine-3-carboxamide], the “MEC (minimal effective concentration)” value stood at 1.00 µM. `Cc1nc2c(OCc3c(F)cccc3F)cc(Cl)cn2c1C(=O)NC(C)C1CCN(C)CC1` (racemic) [Example 78, rac-6-chloro-8-[(2,6-difluorobenzyl)oxy]-2-methyl-N-[1-(1-methylpiperidin-4-yl)ethyl]-imidazo[1,2-a]pyridine-3-carboxamide]: the “MEC (minimal effective concentration)” value was 1.00 µM. To `Cc1nc2c(OCc3c(F)cccc3F)cccn2c1C(=O)NCC1NCCc2ccccc21` (racemic) [Example 80, rac-8-[(2,6-difluorobenzyl)oxy]-2-methyl-N-(1,2,3,4-tetrahydroisoquinolin-1-ylmethyl)-imidazo[1,2-a]pyridine-3-carboxamide] belongs 1.00 µM. Take `Cc1nc2c(OCc3c(F)cccc3F)cccn2c1C(=O)NC1CCCN(C)C1` (racemic) [Example 84, rac-8-[(2,6-difluorobenzyl)oxy]-2-methyl-N-(1-methylpiperidin-3-yl)imidazo[1,2-a]-pyridine-3-carboxamide]: the “MEC (minimal effective concentration)” value worked out at 1.00 µM. Turning to `Cc1nc2c(OCc3c(F)cccc3F)cccn2c1C(=O)NC1CCN(Cc2ccccc2)C1` (racemic) [Example 85, rac-N-(1-benzylpyrrolidin-3-yl)-8-[(2,6-difluoro-benzyl)oxy]-2-methylimidazo[1,2-a]-pyridine-3-carboxamide], the “MEC (minimal effective concentration)” value was found to be 1.00 µM. On to `Cc1nc2c(OCc3c(F)cccc3F)cc(Cl)cn2c1C(=O)NCC1CCCCN1` (racemic) [Example 118, rac-6-chloro-8-[(2,6-difluorobenzyl)oxy]-2-methyl-N-(piperidin-2-ylmethyl)imidazo[1,2-a]-pyridine-3-carboxamide], for which the “MEC (minimal effective concentration)” value was determined as 1.00 µM. As to `Cc1nc2c(OCc3c(F)cccc3F)cccn2c1C(=O)NC12CNCCC1C2` (racemic) [Example 125, rac-N-(3-Azabicyclo[4.1.0]hept-1-yl)-8-[(2,6-difluorobenzyl)oxy]-2-methylimidazo[1,2-a]-pyridine-3-carboxamide], the “MEC (minimal effective concentration)” value came to 1.00 µM. To `Cc1nc2c(OCc3c(F)cccc3F)cccn2c1C(=O)NCC(C)N1CCOCC1` (racemic) [Example 132, rac-8-[(2,6-difluorobenzyl)oxy]-2-methyl-N-[2-(morpholin-4-yl)propyl]imidazo[1,2-a]pyridine-3-carboxamide] belongs 1.00 µM. Turning to `Cc1nc2c(OCc3c(F)cccc3F)cccn2c1C(=O)NC(CN1CCOCC1)c1ccccc1` (racemic) [Example 134, rac-8-[(2,6-difluorobenzyl)oxy]-2-methyl-N-[2-(morpholin-4-yl)-1-phenylethyl]imidazo[1,2-a]-pyridine-3-carboxamide], the “MEC (minimal effective concentration)” value worked out at 3.00 µM. As to `Cc1cc(OCc2c(F)cccc2F)c2nc(C)c(C(=O)NCCNC(C)C)n2c1` (racemic) [Example 135, rac-8-[(2,6-difluorobenzyl)oxy]-N-[2-(isopropylamino)ethyl]-2,6-dimethylimidazo[1,2-a]pyridine-3-carboxamide], the “MEC (minimal effective concentration)” value was determined as 1.00 µM. For the molecule `Cc1cc(OCc2c(F)cccc2F)c2nc(C)c(C(=O)NCC(C)N3CCOCC3)n2c1` (racemic) [Example 138, rac-8-[(2,6-difluorobenzyl)oxy]-2,6-dimethyl-N-[2-(morpholin-4-yl)propyl]imidazo[1,2-a]-pyridine-3-carboxamide], the “MEC (minimal effective concentration)” value was found to be 0.30 µM. Turning to `Cc1nc2c(OCc3c(F)cccc3F)cccn2c1C(=O)NCC(C(C)C)N(C)C` (racemic) [Example 142, rac-8-[(2,6-difluorobenzyl)oxy]-N-[2-(dimethyl-amino)-3-methylbutyl]-2-methylimidazo[1,2-a]-pyridine-3-carboxamide], the “MEC (minimal effective concentration)” value amounted to 1.00 µM.

Take `Cc1nc2c(OCc3c(F)cccc3F)cc(Cl)cn2c1C(=O)NCC(N)CC(F)(F)F` (racemic) [Example 147, rac-N-(2-amino-4,4,4-trifluorobutyl)-6-chloro-8-[(2,6-difluorobenzyl)oxy]-2-methylimidazo[1,2-a]pyridine-3-carboxamide]: the “MEC (minimal effective concentration)” value stood at 0.30 µM. Take `CCC(C)(N)CNC(=O)c1c(C)nc2c(OCc3c(F)cccc3F)cc(Cl)cn12` (racemic) [Example 157, rac-N-(2-amino-2-methylbutyl)-6-chloro-8-[(2,6-difluorobenzyl)oxy]-2-methylimidazo[1,2-a]-pyridine-3-carboxamide]: the “MEC (minimal effective concentration)” value stood at 0.30 µM. Consider `COCC(C)(N)CNC(=O)c1c(C)nc2c(OCc3c(F)cccc3F)cc(Cl)cn12` (racemic) [Example 159, rac-N-(2-amino-3-methoxy-2-methylpropyl)-6-chloro-8-[(2,6-difluorobenzyl)oxy]-2-methylimidazo[1,2-a]pyridine-3-carboxamide], for which the “MEC (minimal effective concentration)” value was determined as 0.30 µM. As to `COCC(C)(N)CNC(=O)c1c(C)nc2c(OCc3c(F)cccc3F)cc(C)cn12` (racemic) [Example 166, rac-N-(2-amino-3-methoxy-2-methylpropyl)-8-[(2,6-difluorobenzyl)oxy]-2,6-dimethylimidazo[1,2-a]pyridine-3-carboxamide], the “MEC (minimal effective concentration)” value is 0.30 µM. Turning to `Cc1nc2c(OCc3c(F)cccc3F)cccn2c1C(=O)NCC(C)(N)CC(C)C` (racemic) [Example 202, rac-N-(2-Amino-2,4-dimethylpentyl)-8-[(2,6-difluorobenzyl)oxy]-2-methylimidazo[1,2-a]pyridine-3-carboxamide], the “MEC (minimal effective concentration)” value worked out at 0.10 µM. In the case of `Cc1nc2c(OCc3c(F)cccc3F)cccn2c1C(=O)NCC(N)COC(C)C` (racemic) [Example 205, rac-N-(2-Amino-3-isopropoxypropyl)-8-[(2,6-difluorobenzyl)oxy]-2-methylimidazo[1,2-a]-pyridine-3-carboxamide], the “MEC (minimal effective concentration)” value was 0.30 µM.
